Source: patent publication US20110166135A1, “AROMATIC NITROGEN-CONTAINING 6-MEMBERED RING COMPOUNDS AND THEIR USE” (priority 2008, published 2011)
pIC50: −log10 of the molar value.

tested on: not given; assay: not given; settings: not given

| melting point | SMILES |
| --- | --- |
| 199 to 201 °C | COc1ccc(-c2cc(N3CCC(O)C3)nc(/C=C/c3nc(N(C)C)c4ccccc4n3)n2)cc1OC (stereo not shown) [Example 1.007, 1-(6-(3,4-dimethoxyphenyl)-2-{(E)-2-[4-(dimethylamino)quinazolin-2-yl]vinyl}pyrimidin-4-yl)pyrrolidin-3-ol] |
| 103 to 108 °C | COc1ccc(-c2cc(N3CCn4ccnc4C3)nc(/C=C/c3nc(N(C)C)c4ccccc4n3)n2)cc1OC [Example 1.008] |
| 126 to 131 °C | COc1ccc(-c2cc(N3CCC(NC(=O)CN(C)C)C3)nc(/C=C/c3nc(N(C)C)c4ccccc4n3)n2)cc1OC (stereo not shown) [Example 1.104, N^1-[1-(6-(3,4-dimethoxyphenyl)-2-{(E)-2-[4-(dimethylamino)quinazolin-2-yl]vinyl}pyrimidin-4-yl)pyrrolidin-3-yl]-N^2,N^2-dimethylglycine amide] |
| 177 to 180 °C | COc1ccc(-c2cc(N3CCN(C)CC3)nc(/C=C/c3nc(-n4ccnc4)c4ccccc4n3)n2)cc1OC [Example 1.010] |

target: T1, PDE10 (PDE10A) (Bos taurus, UniProt A0A3Q1MHJ4); assay: Measurement of PDE10 inhibitory activity (radiolabeled nucleotide PDE assay, Method-A or Method-B); format: biochemical; settings: Method-A: [3H]-cAMP substrate, 37° C., 30 minutes, enzyme from bovine corpus striatum
T1 construct: isolated and prepared from bovine corpus striatum; from tissue; host or cells: bovine corpus striatum
T1 sequence (A0A3Q1MHJ4 1-1068): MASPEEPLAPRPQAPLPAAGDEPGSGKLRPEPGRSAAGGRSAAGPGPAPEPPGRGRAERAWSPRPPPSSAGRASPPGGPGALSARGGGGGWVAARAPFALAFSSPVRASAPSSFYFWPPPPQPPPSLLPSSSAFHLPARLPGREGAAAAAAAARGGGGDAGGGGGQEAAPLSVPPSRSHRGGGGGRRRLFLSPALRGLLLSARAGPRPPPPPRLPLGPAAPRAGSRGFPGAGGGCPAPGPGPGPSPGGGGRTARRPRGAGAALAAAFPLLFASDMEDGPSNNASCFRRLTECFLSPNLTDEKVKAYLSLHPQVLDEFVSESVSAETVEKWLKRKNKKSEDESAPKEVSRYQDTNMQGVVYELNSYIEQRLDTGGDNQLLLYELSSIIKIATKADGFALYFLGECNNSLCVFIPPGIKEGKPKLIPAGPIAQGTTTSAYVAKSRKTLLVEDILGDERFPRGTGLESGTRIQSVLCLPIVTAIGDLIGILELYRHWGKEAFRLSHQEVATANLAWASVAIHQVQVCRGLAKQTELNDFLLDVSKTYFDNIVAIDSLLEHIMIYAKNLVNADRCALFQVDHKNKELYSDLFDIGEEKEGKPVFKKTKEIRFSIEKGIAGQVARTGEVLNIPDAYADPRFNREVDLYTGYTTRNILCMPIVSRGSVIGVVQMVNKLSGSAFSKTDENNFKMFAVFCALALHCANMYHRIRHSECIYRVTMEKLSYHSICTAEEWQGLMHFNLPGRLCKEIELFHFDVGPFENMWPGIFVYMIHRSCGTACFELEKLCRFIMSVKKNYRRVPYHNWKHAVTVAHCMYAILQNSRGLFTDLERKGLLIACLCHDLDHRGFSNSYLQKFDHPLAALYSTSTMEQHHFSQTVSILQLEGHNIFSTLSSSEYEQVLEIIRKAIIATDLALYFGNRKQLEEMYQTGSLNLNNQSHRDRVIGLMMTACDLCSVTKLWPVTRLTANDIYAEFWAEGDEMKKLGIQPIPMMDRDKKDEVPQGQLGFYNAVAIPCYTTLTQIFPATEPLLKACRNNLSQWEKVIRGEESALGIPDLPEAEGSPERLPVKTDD
Experimental: (1) The enzyme PDE10 (PDE10A) was isolated and prepared from bovine corpus striatum, according to the methods described in references Fujishige et al., Eur. J. Biochem., vol. 266, pp. 1118-1127, 1999. The enzyme solution obtained was used for a PDE assay.
The PDE assay was performed according to the method described in Kotera et al. (Kotera et al., Biochem. Pharmacol., vol. 60, pp. 1333-1341, 2000), by the radiolabeled nucleotide method.
Specifically, the measurements of the inhibitory activities were carried out in one of the following methods.
(Method-A) The enzymatic reaction was carried out in 500 μl of assay buffer [50 mM Tris-HCl, pH8.0, 5 mM MgCl2, 4 mM 2-mercaptoethanol, 0.33 mg/ml bovine serum albumin] containing as a substrate about 4.8 nM [^3H]-cAMP+0.25 μM unlabeled cAMP (available from Amersham Biosciences) or about 9.6 nM [^3H]-cAMP.
The reaction was carried out for 30 minutes while keeping the temperature at 37° C. It was stopped by boiling the reaction mixture for 1.5 minutes, and further added thereto was 100 μl of snake venom (Crotalus atrox snake venom 1 mg/ml) and the temperature was kept at 37° C. for 30 minutes. Then 500 μl of methanol was added, and the reaction mixture was applied to a Dowex column (1×8 200-400). Subsequently, scintillation cocktail was added to each aliquot of the eluant, and the radioactivity was measured in a scintillation counter. Thus, PDE activity taking cAMP as a substrate (an activity to hydrolyze cAMP) was measured.
In the measurements of the inhibitory activities of compounds, a test compound was added to the above-mentioned reaction mixture, in various concentrations, and PDE activity was measured in the presence or absence of the test compound. From the measurements, its PDE10 (PDE10A) inhibitory activity was determined.
(Method-B) The test compounds were dissolved in dimethyl sulfoxide (DMSO). 2 μL of the compound solution was added to 96 well plate, and the reaction mixture (20 μL of PDE enzyme solution in 50 mM Tris-HCl, pH 8.0, 40 μL of the assay buffer (50 mM Tris-HCl, pH 8.0, 2 mM MgCl2, 0.07% 2-mercaptoethanol, and 0.825 mg/mL bovine serum albumin), and 20 μL of 1 mg/mL snake venom) was added to the 96 well plate. The enzyme reaction was started by adding and mixing with substrate solution of 20 μL containing approximate 35 nM [5′,8-3H]cAMP in 50 mM Tris-HCl, pH 8.0. The final concentration of cAMP in the reaction mixtures was 7 nM. The reaction mixtures were incubated at room temperature for 90 min under dark conditions. After incubation, the reaction was stopped by adding 100 μL of methanol and resultant solutions were applied to filter plate containing Dowex (1×8 200-400) and centrifuged. 50 μL of the eluate together with wash eluate with additional 100 μL methanol was collected in another plate and the radioactivity was measured with 250 μL of scintillant.
(2) The compounds in the Examples below were tested for PDE inhibition using (Method-A) or (Method-B) described above.

| pIC50 | SMILES |
| --- | --- |
| 7.42 | COc1cc(OC)nc(OCc2cc(-c3ccc(OC)c(OC)c3)nc(N3CCCC3)n2)n1 [Example 3.029] |
| 7.62 | CN(C)c1nc(OCc2cc(N3CCCC3)nc(-c3cccnc3)n2)nc2ccccc12 [Example 3.034] |
| 9.36 | COc1ccc(-c2cc(N3CCn4ccnc4C3)nc(/C=C/c3nc(N(C)C)c4ccccc4n3)n2)cc1OC [Example 1.008] |
| 7.54 | COc1ccc(-c2cc(N3CCCC3)nc(/C=C/c3nc(C)cnc3C)n2)cc1OC [Example 1.057] |
| 7.51 | Cc1cnc(/C=C/c2nc(-c3ccccn3)cc(N3CCCC3)n2)nc1N(C)C [Example 1.071] |
| 8.01 | COc1ccc(-c2cc(N3CCCC3)nc(/C=C/c3nc(C)nc4c3CCN4C)n2)cc1OC [Example 1.055] |
| 8.38 | COc1ccc(-c2cc(N3CCN(C)C3=O)nc(/C=C/c3nc(N4CCCC4)c4ccccc4n3)n2)cc1OC [Example 1.013] |
| 7.34 | COc1ccc(-c2cc(N3CCN(C)CC3)nc(/C=C/c3nc(-n4ccnc4)c4ccccc4n3)n2)cc1OC [Example 1.010] |
| 7.46 | Cc1nc(OCc2cc(-c3ccco3)nc(N3CCCC3)n2)nc(N(C)C)c1C [Example 3.017] |

same assay, conditions: Method-B: 96 well plate, 7 nM cAMP, room temperature, 90 min, enzyme from bovine corpus striatum

| pIC50 | SMILES |
| --- | --- |
| 9.12 | Cc1nc2ccccc2nc1/C=C/c1nc(C(=O)N(C2CCOCC2)C2CC2)cc(N2CCCC2)n1 [Example 1.211] |
| 9.07 | Cc1nc2ccccc2nc1/C=C/c1cc(C(=O)NC2CCOCC2)nc(N2CCCC2)n1 [Example 4.001] |
| 9.31 | Cc1nc2ccccc2nc1/C=C/c1nc(C(=O)NN2CCCCC2)cc(N2CCCC2)n1 [Example 1.220] |
| 7.70 | Cc1nc2ccccc2nc1/C=C/c1nc(C(=O)N(C)C2CCOCC2)cc(N2CCC(O)C2)n1 (stereo not shown) [Example 1.226] |
| 9.08 | CC(C)=NOc1cc(N2CCCC2)nc(/C=C/c2nc(N(C)C)c3ccccc3n2)n1 [Example 2.039] |
| 8.48 | Cc1nc2ccccc2nc1CCc1nc(C(=O)NC[C@@H]2CCCO2)cc(N2CCCC2)n1 [Example 5.006] |
| 9.15 | Cc1nc2ccccc2nc1/C=C/c1nc(CNC2CCOCC2)cc(N2CCCC2)n1 [Example 1.268] |
| 8.85 | CN(C(=O)c1cc(N2CCCC2)nc(/C=C/c2nc3ccccc3nc2C2CC2)n1)C1CCOCC1 [Example 1.253] |
| 9.21 | Cc1nc2ccccc2nc1/C=C/c1nc(C(=O)NC2CCOCC2)cc(N2CCCC2)n1 [Example 1.208] |
| 9.05 | CN(C)c1nc(/C=C/c2nc(OC3CCCCC3)cc(N3CCCC3)n2)nc2ccccc12 [Example 2.035] |
| 9.22 | CN(C)c1nc(/C=C/c2nc(C(=O)NN3CCCCC3)cc(N3CCCC3)n2)nc2ccccc12 [Example 1.159] |
| 9.68 | CN(C)c1nc(/C=C/c2nc(OC[C@@H]3CCC(=O)N3)cc(N3CCCC3)n2)nc2ccccc12 [Example 2.048] |
| 8.64 | CCOc1nc2ccccc2nc1CCc1nc(C(=O)NC2CCOCC2)cc(N2CCCC2)n1 [Example 5.012] |
| 9.19 | Cc1nc(/C=C/c2nc(OC3CCOCC3)cc(N3CCCC3)n2)nc(N(C)C)c1C [Example 2.053] |
| 8.60 | Cc1cc2ccccc2nc1/C=C/c1nc(C(=O)NC2CCOCC2)cc(N2CCCC2)n1 [Example 1.260] |
